The test system of this experiment is α2δ subunit derived from porcine brain tissue. As to the kind of experiment: radioligand binding assay using [3H]gabapentin and the α2δ subunit. Conditions: [3H]gabapentin radioligand. An excerpt: The biological activity of the compounds of the invention may be measured in a radioligand binding assay using [^3H]gabapentin and the α2δ subunit derived from porcine brain tissue (Gee N. S., Brown J. P., Dissanayake V. U. K., Offord J., Thurlow R., Woodruff G. N., J. Biol. Chem., 1996; 271:5776–5879). Results may be expressed in terms of μM or nM α2δ binding affinity.
`Cl.NCc1ccc(Cl)cc1C(=O)O` [Example 1, 2-Aminomethyl-5-chloro-benzoic acid hydrochloride salt]: the α2δ binding affinity is on record as 100 nM. Regarding `Cl.NCc1cc(Cl)c(Cl)cc1C(=O)O` [Example 2, 2-Aminomethyl-4,5-dichloro-benzoic acid hydrochloride salt], the α2δ binding affinity came to 435 nM. Turning to `Cl.NCc1cccc(Cl)c1C(=O)O` [Example 4, 2-Aminomethyl-6-chloro-benzoic acid hydrochloride salt], the α2δ binding affinity is recorded as 383 nM. Molecule `CC(N)c1ccccc1C(=O)O.Cl` (centres unmarked) [Example 5, 2-(1-Amino-ethyl)-benzoic acid hydrochlorid salt] came in with a α2δ binding affinity of 270 nM. Take `Cl.NCc1ccc(Cl)cc1-c1noc(=O)[nH]1` [Example 7, 3-(2-Aminomethyl-5-chloro-phenyl)-4-H-[1,2,4]loxadiazol-5-one hydrochloride salt]: the α2δ binding affinity was 8000 nM.
